Laboratory results published in ChEMBL document CHEMBL1201862, “PubChem BioAssay data set” (2004).
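Five compound concentrations were applied to cells in 96-well plates for 48 hours; endpoints were derived by simple linear interpolation of the resulting dose-response curve. The concentration for 50% growth inhibition is given as GI50.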 Activity calls are given as the source filed them. Rule as the data show it: active = GI50 up to about 1.1 µM and inactive = higher.

Columns and labels:
Assay in all cases: inhibition of tumour cell growth, NCI panel, 48 h
[1] = test system: CCRF-CEM
[2] = test system: HOP-62
[3] = test system: NCI-H23
[4] = test system: M14
[5] = test system: MOLT-4
[6] = test system: HCC 2998
[7] = test system: A498
[8] = test system: M19-MEL
[9] = test system: HCT-15
[10] = test system: SK-MEL-2
[11] = test system: UO-31
[12] = test system: HL-60
[13] = test system: 786-0
[14] = test system: HOP-92
[15] = test system: SNB-19
[16] = test system: SF-295
[17] = test system: KM-20L2
[18] = test system: DLD-1
[19] = test system: NCI-H226
[20] = test system: Malme-3M
[21] = test system: NCI-H522
[22] = test system: OVCAR-4
[23] = test system: SN12C
[24] = test system: SF-268
[25] = test system: SK-MEL-28
[26] = test system: SF-539
[27] = test system: DMS-273
[28] = test system: SNB-75
[29] = test system: SNB-78
[30] = test system: OVCAR-8
[31] = test system: LXFL 529
[32] = test system: SK-OV-3
[33] = test system: OVCAR-3
[34] = test system: RPMI-8226
[35] = test system: RXF 393
[36] = test system: NCI-H460
[37] = test system: ACHN
[38] = test system: CAKI-1
[39] = test system: K562
[40] = test system: SK-MEL-5
[41] = test system: LOX IMVI
[42] = test system: COLO 205
[43] = test system: OVCAR-5
[44] = test system: UACC-62
[45] = test system: IGROV-1
[46] = test system: HT-29
[47] = test system: EKVX
[48] = test system: DMS-114
[49] = test system: TK-10
[50] = test system: SW-620
[51] = test system: A549
[52] = test system: KM12
[53] = test system: UACC-257
[54] = test system: U-251
[55] = test system: HCT-116
[56] = test system: SR

Compound: CC1(c2ccccc2Cl)C(C#N)C(=O)NC(=O)C1C#N (centres undefined)
- GI50 [1]: 30.1 µM (inactive)
- GI50 [2]: 30.6 µM (inactive)
- GI50 [3]: 33.3 µM (inactive)
- GI50 [4]: 42.6 µM (inactive)
- GI50 [5]: 31.2 µM (inactive)
- GI50 [6]: 41.3 µM (inactive)
- GI50 [7]: 36.4 µM (inactive)
- GI50 [8]: 35.3 µM (inactive)
- GI50 [9]: > 100 µM
- GI50 [10]: 49.9 µM (inactive)
- GI50 [11]: 27.5 µM (inactive)
- GI50 [12]: 21.6 µM (inactive)
- GI50 [13]: 45.6 µM (inactive)
- GI50 [14]: 23.5 µM (inactive)
- GI50 [15]: 28.7 µM (inactive)
- GI50 [16]: 32.7 µM (inactive)
- GI50 [17]: 36.1 µM (inactive)
- GI50 [18]: 68.7 µM (inactive)
- GI50 [19]: 27.5 µM (inactive)
- GI50 [20]: 35.5 µM (inactive)
- GI50 [21]: 20.8 µM (inactive)
- GI50 [22]: 33.3 µM (inactive)
- GI50 [23]: 28.7 µM (inactive)
- GI50 [24]: 35.8 µM (inactive)
- GI50 [25]: 37.8 µM (inactive)
- GI50 [26]: 34.8 µM (inactive)
- GI50 [27]: 33.6 µM (inactive)
- GI50 [28]: 24.8 µM (inactive)
- GI50 [29]: 55.6 µM (inactive)
- GI50 [30]: 35.6 µM (inactive)
- GI50 [31]: 27 µM (inactive)
- GI50 [32]: 34.6 µM (inactive)
- GI50 [33]: 17.8 µM (inactive)
- GI50 [34]: 22.7 µM (inactive)
- GI50 [35]: 27.9 µM (inactive)
- GI50 [36]: 36.6 µM (inactive)
- GI50 [37]: 34.8 µM (inactive)
- GI50 [38]: > 100 µM (inactive)
- GI50 [39]: 27.4 µM (inactive)
- GI50 [40]: 25.8 µM (inactive)
- GI50 [41]: 40.1 µM (inactive)
- GI50 [42]: 45 µM (inactive)
- GI50 [43]: 91 µM (inactive)
- GI50 [44]: 33.6 µM (inactive)
- GI50 [45]: 64.1 µM (inactive)
- GI50 [46]: 36.6 µM (inactive)
- GI50 [47]: 24.5 µM (inactive)
- GI50 [48]: 30.9 µM (inactive)
- GI50 [49]: > 100 µM (inactive)
- GI50 [50]: 43.8 µM (inactive)
- GI50 [51]: 45.5 µM (inactive)
- GI50 [52]: > 10 µM (inactive)
- GI50 [53]: 30.5 µM (inactive)

Compound: C#Cc1cccc(NC(=O)/C=C\C(=O)O)c1
- GI50 [1]: > 100 µM (inactive)
- GI50 [3]: > 100 µM (inactive)
- GI50 [5]: > 100 µM (inactive)
- GI50 [7]: > 100 µM (inactive)
- GI50 [10]: > 100 µM (inactive)
- GI50 [11]: > 100 µM (inactive)
- GI50 [12]: > 100 µM (inactive)
- GI50 [13]: > 100 µM (inactive)
- GI50 [14]: > 100 µM (inactive)
- GI50 [15]: > 100 µM (inactive)
- GI50 [16]: > 100 µM (inactive)
- GI50 [17]: > 100 µM (inactive)
- GI50 [18]: > 100 µM (inactive)
- GI50 [19]: > 100 µM (inactive)
- GI50 [20]: > 100 µM (inactive)
- GI50 [21]: > 100 µM (inactive)
- GI50 [22]: > 100 µM (inactive)
- GI50 [23]: > 100 µM (inactive)
- GI50 [24]: > 100 µM (inactive)
- GI50 [25]: > 100 µM (inactive)
- GI50 [28]: > 100 µM (inactive)
- GI50 [29]: > 100 µM (inactive)
- GI50 [30]: > 100 µM (inactive)
- GI50 [31]: > 100 µM (inactive)
- GI50 [54]: > 100 µM (inactive)
- GI50 [32]: > 100 µM (inactive)
- GI50 [34]: > 100 µM (inactive)
- GI50 [36]: > 100 µM (inactive)
- GI50 [37]: > 100 µM (inactive)
- GI50 [38]: > 100 µM (inactive)
- GI50 [39]: > 100 µM (inactive)
- GI50 [40]: > 100 µM (inactive)
- GI50 [42]: > 100 µM (inactive)
- GI50 [43]: > 100 µM (inactive)
- GI50 [44]: > 100 µM (inactive)
- GI50 [46]: > 100 µM (inactive)
- GI50 [47]: > 100 µM (inactive)
- GI50 [55]: > 100 µM (inactive)
- GI50 [49]: > 100 µM (inactive)
- GI50 [50]: > 100 µM (inactive)
- GI50 [51]: > 100 µM (inactive)
- GI50 [52]: > 100 µM (inactive)
- GI50 [53]: > 100 µM (inactive)

Compound: C=CCC(C(=O)OC)C1(C(=O)OC)c2[nH]c3ccccc3c2CCN1Cc1ccccc1 (centres undefined)
- GI50 [1]: 29.8 µM (inactive)
- GI50 [2]: > 100 µM (inactive)
- GI50 [3]: > 100 µM (inactive)
- GI50 [4]: 82.4 µM (inactive)
- GI50 [5]: > 100 µM (inactive)
- GI50 [6]: > 100 µM (inactive)
- GI50 [7]: 54.6 µM (inactive)
- GI50 [8]: > 100 µM (inactive)
- GI50 [9]: > 100 µM
- GI50 [10]: > 100 µM (inactive)
- GI50 [11]: 53.3 µM (inactive)
- GI50 [12]: 18.2 µM (inactive)
- GI50 [13]: 19 µM (inactive)
- GI50 [14]: 23.4 µM (inactive)
- GI50 [15]: > 100 µM (inactive)
- GI50 [56]: 6.68 µM (inactive)
- GI50 [16]: 35.1 µM (inactive)
- GI50 [17]: > 100 µM (inactive)
- GI50 [18]: > 100 µM (inactive)
- GI50 [20]: 51.8 µM (inactive)
- GI50 [21]: > 100 µM (inactive)
- GI50 [22]: 20.2 µM (inactive)
- GI50 [23]: > 100 µM (inactive)
- GI50 [24]: > 100 µM (inactive)
- GI50 [25]: > 100 µM (inactive)
- GI50 [26]: > 100 µM (inactive)
- GI50 [28]: > 100 µM (inactive)
- GI50 [30]: 83.6 µM (inactive)
- GI50 [54]: 64.4 µM (inactive)
- GI50 [32]: 89.9 µM (inactive)
- GI50 [33]: > 100 µM (inactive)
- GI50 [34]: > 100 µM (inactive)
- GI50 [35]: 33 µM (inactive)
- GI50 [38]: 66.8 µM (inactive)
- GI50 [39]: > 10 µM (inactive)
- GI50 [40]: 85.5 µM (inactive)
- GI50 [42]: > 100 µM (inactive)
- GI50 [43]: > 100 µM (inactive)
- GI50 [44]: 74.6 µM (inactive)
- GI50 [45]: > 100 µM (inactive)
- GI50 [46]: > 100 µM (inactive)
- GI50 [47]: > 100 µM (inactive)
- GI50 [55]: 69.5 µM (inactive)
- GI50 [48]: > 100 µM (inactive)
- GI50 [49]: > 100 µM (inactive)
- GI50 [50]: > 100 µM (inactive)
- GI50 [51]: 58.9 µM (inactive)
- GI50 [52]: > 100 µM (inactive)
